Each structure is given as a SMILES string.

The source of these data is patent US9938279B2, “Method for treating disease or condition susceptible to amelioration by AMPK activators and compounds of formula which are useful to activate AMP-activated protein kinase (AMPK)” (ENERGENESIS BIOMEDICAL CO., LTD, priority 2013, dated 2018).

In test [1] the test system is AMPK. In words: AMPK activation assay (western blot phospho-AMPK Thr172) in Hep G2. In kind it is cell-based, human. The conditions noted are these: Hep G2 cells, 30 min treatment. In outline:
(§1)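 Mouse C2C12, mouse 3T3-L1 and human Hep G2 cells in high-glucose DMEM/10% FBS were treated with compounds for 30 min, 24 h after plating. Lysates were western-blotted for phospho-AMPK (Thr172) and total AMPK, ECL-detected, and bands quantified by densitometry.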
(In general: Immunoblotting shows a protein as a band on a membrane.)

A further test relates to muscle cell C2C12. In words: Glucose uptake in vitro (fluorescent glucose analog 2-NBDG). The test is classed as cell-based, mouse. The note with it: 30 min treatment, mean±SEM of three experiments. On the procedure:
Effects of representative compounds on glucose uptake were analyzed in muscle cell C2C12 by using fluorescent glucose analog (2-NBDG, Molecular Probes). C2C12 were treated with selected novel AMPK activator for 30 min at 37° C. then exposed to 500 μM of fluorescent glucose analog. After 5 min incubation at room temperature, cells were washed three times with Kreb-Hepes buffered solution and fix in 70% alcohol. The fluorescence of glucose analog in cells was detected using a Fluorescence Microplate Reader System at 480-nm excitation and 530-nm emission wavelength.
Data are presented as the mean±SEM of three independent experiments.

Test [2] deals with AMPK. In words: AMPK activation assay (western blot phospho-AMPK Thr172) in C2C12. In kind it is cell-based, mouse. The conditions noted are these: C2C12 cells, 30 min treatment. In outline: as §1
Test [3] has as its system AMPK. Kind of test: AMPK activation assay (western blot phospho-AMPK Thr172) in 3T3-L1. In kind it is cell-based, mouse. The conditions noted are these: 3T3-L1 cells, 30 min treatment. The method in brief:
as §1

Regarding `Oc1nc(NC2CCCCC2)nc2nc[nH]c12` [2-cyclohexylamino-6-hydroxypurine], the “AMPK activation (% to control) Hep G2” value is 111 % to control in the test on AMPK [1] (1 microM), 137 % to control in the test with AMPK [1] (10 microM), 248 % to control with AMPK [1] (100 microM) and 351 % to control in the test with AMPK [1] (200 microM). Further, the “Glucose uptake (% to control)” value is on record as 108 ± 2.1 % to control with muscle cell C2C12 (C2C12, 1 microM); 195 ± 11.9 % to control in the test with muscle cell C2C12 (C2C12, 10 microM); 251 ± 16.2 % to control with muscle cell C2C12 (C2C12, 100 microM); 311 ± 10.7 % to control in the test on muscle cell C2C12 (C2C12, 600 microM). Also, the “AMPK activation (% to control) C2C12” value in the test on AMPK [2] (1 microM) is recorded as 108 % to control; with AMPK [2] (10 microM), 118 % to control; in the test on AMPK [2] (100 microM), 209 % to control; with AMPK [2] (200 microM), 321 % to control. Also, the “AMPK activation (% to control) 3T3-L1” value in the test with AMPK [3] (1 microM) is reported as 118 % to control; with AMPK [3] (10 microM), 172 % to control; in the test on AMPK [3] (100 microM), 283 % to control; in the test with AMPK [3] (200 microM) it was 375 % to control.

For `Cc1ccc(CNc2ncnc3nc[nH]c23)cc1` [6-(4-methylbenzylamino)purine], the “AMPK activation (% to control) Hep G2” value in the test with AMPK [1] (1 microM) is 106 % to control; in the test with AMPK [1] (10 microM) it was 121 % to control; in the test on AMPK [1] (100 microM), 245 % to control; in the test with AMPK [1] (200 microM) it was 348 % to control. For the same molecule, the “Glucose uptake (% to control)” value with muscle cell C2C12 (C2C12, 1 microM) is 114 ± 9.2 % to control; in the test with muscle cell C2C12 (C2C12, 10 microM) it was 205 ± 14.6 % to control; in the test with muscle cell C2C12 (C2C12, 100 microM) it was 281 ± 11.5 % to control; with muscle cell C2C12 (C2C12, 600 microM) it was 309 ± 9.1 % to control. Also, the “AMPK activation (% to control) C2C12” value in the test on AMPK [2] (1 microM) is recorded as 112 % to control; in the test on AMPK [2] (10 microM), 158 % to control; with AMPK [2] (100 microM), 270 % to control; in the test on AMPK [2] (200 microM), 358 % to control. The “AMPK activation (% to control) 3T3-L1” value in the test on AMPK [3] (1 microM) is 110 % to control; with AMPK [3] (10 microM), 163 % to control; in the test with AMPK [3] (100 microM), 259 % to control; in the test on AMPK [3] (200 microM), 347 % to control.

For the molecule `Oc1ncnc2nc[nH]c12` [6-hydroxypurine], the “AMPK activation (% to control) Hep G2” value in the test on AMPK [1] (1 microM) is 114 % to control; with AMPK [1] (10 microM), 146 % to control; in the test on AMPK [1] (100 microM), 165 % to control; with AMPK [1] (200 microM), 330 % to control. Moreover, the “Glucose uptake (% to control)” value is listed as 109 ± 2.2 % to control in the test with muscle cell C2C12 (C2C12, 1 microM); 242 ± 23.7 % to control in the test on muscle cell C2C12 (C2C12, 10 microM); 289 ± 21.4 % to control in the test on muscle cell C2C12 (C2C12, 100 microM); 318 ± 21.2 % to control with muscle cell C2C12 (C2C12, 600 microM). In addition, the “AMPK activation (% to control) C2C12” value is recorded as 120 % to control in the test on AMPK [2] (1 microM), 148 % to control in the test with AMPK [2] (10 microM), 233 % to control with AMPK [2] (100 microM) and 341 % to control in the test on AMPK [2] (200 microM). Besides, the “AMPK activation (% to control) 3T3-L1” value in the test with AMPK [3] (1 microM) is 118 % to control; in the test on AMPK [3] (10 microM) it was 155 % to control; with AMPK [3] (100 microM), 198 % to control; with AMPK [3] (200 microM), 325 % to control.

`NC(=O)c1ncn([C@@H]2O[C@H](CO)[C@@H](O)[C@H]2O)c1N` [AICAR, 5-amino-1-β-D-ribofuranosyl-imidazole-4-carboxamide, reference compound]: the “AMPK activation (% to control) Hep G2” value in the test with AMPK [1] (1200 microM) is 319 % to control. In the test with muscle cell C2C12 (C2C12, 1200 microM), the “Glucose uptake (% to control)” value is reported as 264 ± 19.2 % to control. In addition, the “AMPK activation (% to control) C2C12” value with AMPK [2] (1200 microM) is recorded as 335 % to control. In addition, in the test on AMPK [3] (1200 microM), the “AMPK activation (% to control) 3T3-L1” value was 340 % to control.

Turning to `O=c1[nH]cnc2nc[nH]c12` [Hypoxanthine], the “AMPK activation (% to control) Hep G2” value with AMPK [1] (1 microM) is given as 105 % to control; in the test on AMPK [1] (10 microM), 124 % to control; in the test on AMPK [1] (100 microM) it was 225 % to control; in the test on AMPK [1] (200 microM), 341 % to control. Moreover, the “AMPK activation (% to control) C2C12” value in the test on AMPK [2] (1 microM) was 108 % to control; in the test with AMPK [2] (10 microM), 121 % to control; in the test on AMPK [2] (100 microM) it was 238 % to control; with AMPK [2] (200 microM), 309 % to control. In addition, the “AMPK activation (% to control) 3T3-L1” value in the test with AMPK [3] (1 microM) is 108 % to control; in the test on AMPK [3] (10 microM), 128 % to control; in the test on AMPK [3] (100 microM), 231 % to control; with AMPK [3] (200 microM), 335 % to control.

Turning to `Cc1c[nH]c(=O)[nH]c1=O` [Thymine, thymine], the “AMPK activation (% to control) Hep G2” value was 110 % to control in the test with AMPK [1] (1 microM), 113 % to control in the test on AMPK [1] (10 microM), 218 % to control in the test on AMPK [1] (100 microM) and 303 % to control with AMPK [1] (200 microM). Further, the “Glucose uptake (% to control)” value was 110 ± 3.2 % to control with muscle cell C2C12 (C2C12, 1 microM); 167 ± 15.1 % to control in the test on muscle cell C2C12 (C2C12, 10 microM); 215 ± 18.2 % to control with muscle cell C2C12 (C2C12, 100 microM); 283 ± 22.3 % to control with muscle cell C2C12 (C2C12, 600 microM). Further, the “AMPK activation (% to control) C2C12” value with AMPK [2] (1 microM) is 117 % to control; in the test with AMPK [2] (10 microM), 147 % to control; with AMPK [2] (100 microM) it was 266 % to control; in the test on AMPK [2] (200 microM), 354 % to control. Moreover, the “AMPK activation (% to control) 3T3-L1” value in the test on AMPK [3] (1 microM) is reported as 109 % to control; in the test with AMPK [3] (10 microM) it was 129 % to control; with AMPK [3] (100 microM), 235 % to control; with AMPK [3] (200 microM) it was 318 % to control.

As to `O=c1cc[nH]c(=O)[nH]1` [Uracil], the “AMPK activation (% to control) Hep G2” value in the test on AMPK [1] (1 microM) is reported as 118 % to control; with AMPK [1] (10 microM) it was 144 % to control; in the test on AMPK [1] (100 microM), 237 % to control; with AMPK [1] (200 microM), 359 % to control. For the same molecule, the “AMPK activation (% to control) C2C12” value in the test with AMPK [2] (1 microM) was 105 % to control; with AMPK [2] (10 microM), 109 % to control; with AMPK [2] (100 microM) it was 264 % to control; in the test on AMPK [2] (200 microM) it was 358 % to control. Besides, the “AMPK activation (% to control) 3T3-L1” value is given as 114 % to control in the test with AMPK [3] (1 microM), 123 % to control in the test on AMPK [3] (10 microM), 248 % to control in the test on AMPK [3] (100 microM) and 372 % to control in the test with AMPK [3] (200 microM).
